Experimental findings from publication PMC11605156, “Triterpenoids from Ganoderma lucidum inhibit cytochrome P450 enzymes interfering with the metabolic process of specific clinical drugs” (Frontiers in Pharmacology, 2024) are described below.

A word on the IC50: it is the concentration that inhibits the measured activity by half.

In one data set the target is T1, CYP2B6 (Homo sapiens, UniProt P20813).
T1 sequence (P20813 1-491): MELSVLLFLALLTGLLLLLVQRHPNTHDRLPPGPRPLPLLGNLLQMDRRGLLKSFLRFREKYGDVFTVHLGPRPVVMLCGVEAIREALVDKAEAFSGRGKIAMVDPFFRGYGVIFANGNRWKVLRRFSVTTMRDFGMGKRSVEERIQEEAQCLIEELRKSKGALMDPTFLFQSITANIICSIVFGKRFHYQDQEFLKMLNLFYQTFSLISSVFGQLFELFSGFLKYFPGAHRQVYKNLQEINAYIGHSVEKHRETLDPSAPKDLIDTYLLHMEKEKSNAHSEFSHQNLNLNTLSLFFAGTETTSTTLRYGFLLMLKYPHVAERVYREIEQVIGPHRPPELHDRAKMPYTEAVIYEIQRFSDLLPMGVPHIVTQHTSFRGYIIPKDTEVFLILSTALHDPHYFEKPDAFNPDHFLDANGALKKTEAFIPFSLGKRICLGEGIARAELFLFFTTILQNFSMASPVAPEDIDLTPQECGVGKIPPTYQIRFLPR
The experiment in a line: CYP2B6 inhibition, probe/drug metabolism in human liver microsomes. The conditions noted are these: human, human liver microsomes, pH 7.4, probe bupropion 75 μM, Residual activity (%) CYP2B6, HLM 0.5 mg/mL, bupropion 75 μM, 30 min. On the procedure:
(§1) The total volume of the in vitro metabolic incubation system is 200 μL. The probe substrate concentration in the system is shown in Supplementary Table S1. […] The reaction sample was preheated in a constant temperature mixer at 37°C. Then NADP^+ was added to the system to initiate the reaction. The reaction time is 30 min, and 100 μL acetonitrile will be added on time to quickly terminate the reaction, followed by centrifugation at 4°C and 20,000 g for 20 min. The supernatant was analyzed using liquid chromatography tandem mass spectrometry (LC-MS/MS), and the activity of CYP enzymes was evaluated by the generation of probe metabolites. The mass spectrometry information of probe substrates is shown in Supplementary Table S3.
(§2) The isolated triterpenoids (1–66) were used to establish a compounds library. The inhibitory effects of 66 triterpenoids from G. lucidum on seven subtypes of CYP enzymes (CYP1A2, 2A6, 2D6, 2B6, 2C9, 2C19, 3A4) were evaluated followed the above-mentioned experimental procedures.
(§3) For 16 clinical drugs metabolized by CYP enzymes, potential DDI studies were conducted on triterpenoids (6, 25) of G. lucidum, and IC50 values were measured.
(§4) Clinical drugs: Phenacetin, melatonin, clozapine and riluzole are metabolized by CYP1A2. Bupropion, artemisinin, efavirenz and sertraline are metabolized by CYP2B6. Diclofenac, valsartan, glimepiride and glibenclamide are metabolized by CYP2C9. Midazolam, imatinib, simvastatin and diltiazem are metabolized by CYP3A4.
(§5) Table S1. The information of probes for CYPs activity assay
(§6) Table S2. Information of clinical drugs
On the technique in general: Liver microsomes are vesicles of endoplasmic reticulum, rich in cytochrome P450 enzymes.

In the next data set the target is CYP2D6 (Homo sapiens, UniProt P10635). The experiment in a line: CYP2D6 inhibition, dextromethorphan probe in human liver microsomes. The settings on record: human, human liver microsomes, pH 7.4, probe dextromethorphan 5 μM, Residual activity (%) CYP2D6, HLM 0.5 mg/mL. Here is the method: as §1, §2, §5
The target in another data set is CYP3A4 (Homo sapiens, UniProt P08684). The experiment in a line: CYP3A4 inhibition, probe/drug metabolism in human liver microsomes. The conditions noted are these: human, human liver microsomes, pH 7.4, probe midazolam 5 μM, Residual activity (%) CYP3A4, HLM 0.5 mg/mL, midazolam 5 μM, 30 min. On the procedure: as §1, §2, §3, §4, §5, §6
For another data set, the target named is T2, CYP2A6 (Homo sapiens, UniProt P11509).
T2 sequence (P11509 1-494): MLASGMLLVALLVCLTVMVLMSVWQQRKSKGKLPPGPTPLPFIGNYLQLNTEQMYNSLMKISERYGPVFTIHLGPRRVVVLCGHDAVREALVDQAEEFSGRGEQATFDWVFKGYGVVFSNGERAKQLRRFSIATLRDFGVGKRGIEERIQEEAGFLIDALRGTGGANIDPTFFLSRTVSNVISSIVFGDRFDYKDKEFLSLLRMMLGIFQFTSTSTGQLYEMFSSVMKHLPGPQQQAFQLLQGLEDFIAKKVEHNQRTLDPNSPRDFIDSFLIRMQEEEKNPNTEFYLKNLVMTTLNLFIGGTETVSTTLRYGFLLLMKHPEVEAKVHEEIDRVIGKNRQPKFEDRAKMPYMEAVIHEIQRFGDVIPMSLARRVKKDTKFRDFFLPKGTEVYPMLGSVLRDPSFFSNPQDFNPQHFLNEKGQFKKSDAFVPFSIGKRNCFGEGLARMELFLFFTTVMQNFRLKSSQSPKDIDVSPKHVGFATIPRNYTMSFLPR
The experiment in a line: CYP2A6 inhibition, coumarin probe in human liver microsomes. The conditions noted are these: human, human liver microsomes, pH 7.4, probe coumarin 2 μM, Residual activity (%) CYP2A6, HLM 0.5 mg/mL. On the procedure:
as §1, §2, §5

The target of another data set is CYP2C19 (Homo sapiens, UniProt P33261). The data set is described as follows: CYP2C19 inhibition, S-mephenytoin probe in human liver microsomes. The conditions noted are these: human, human liver microsomes, pH 7.4, probe S-mephenytoin 50 μM, Residual activity (%) CYP2C19, HLM 0.5 mg/mL, S-mephenytoin 50 μM, 30 min. On the procedure:
as §1, §2, §5

A further data set concerns the target CYP2C9 (Homo sapiens, UniProt P11712). The experiment in a line: CYP2C9 inhibition, probe/drug metabolism in human liver microsomes. The settings on record: human, human liver microsomes, pH 7.4, probe diclofenac 4 μM, Residual activity (%) CYP2C9, HLM 0.5 mg/mL, diclofenac 4 μM, 30 min. On the procedure: as §1, §2, §3, §4, §5, §6
A further data set concerns the target T3, CYP1A2 (Homo sapiens, UniProt P05177).
T3 sequence (P05177 1-516): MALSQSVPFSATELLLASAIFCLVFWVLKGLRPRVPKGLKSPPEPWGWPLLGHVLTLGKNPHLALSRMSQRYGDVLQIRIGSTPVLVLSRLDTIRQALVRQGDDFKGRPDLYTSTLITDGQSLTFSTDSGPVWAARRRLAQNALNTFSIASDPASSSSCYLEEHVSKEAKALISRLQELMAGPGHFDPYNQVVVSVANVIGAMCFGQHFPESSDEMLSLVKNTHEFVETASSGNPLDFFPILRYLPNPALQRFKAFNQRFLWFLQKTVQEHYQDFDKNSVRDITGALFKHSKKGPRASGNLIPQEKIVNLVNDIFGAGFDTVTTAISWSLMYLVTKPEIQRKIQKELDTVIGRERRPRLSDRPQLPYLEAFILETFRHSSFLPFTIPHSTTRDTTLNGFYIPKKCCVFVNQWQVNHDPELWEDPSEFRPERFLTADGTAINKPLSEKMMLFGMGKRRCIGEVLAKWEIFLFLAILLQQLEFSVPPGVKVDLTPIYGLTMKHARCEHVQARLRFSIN
The experiment in a line: CYP1A2 inhibition, probe/drug metabolism in human liver microsomes (LC-MS/MS). The conditions noted are these: for activity at 30 min: human, human liver microsomes, pH 7.4, probe phenacetin 40 μM, Residual activity (%) CYP1A2, HLM 0.5 mg/mL, phenacetin 40 μM; for IC50: IC50 against CYP 1A2, substrate phenacetin 40 μM, HLM. On the procedure: as §1, §2, §3, §4, §5, §6

CYP2D6, sequence (P10635 whole entry): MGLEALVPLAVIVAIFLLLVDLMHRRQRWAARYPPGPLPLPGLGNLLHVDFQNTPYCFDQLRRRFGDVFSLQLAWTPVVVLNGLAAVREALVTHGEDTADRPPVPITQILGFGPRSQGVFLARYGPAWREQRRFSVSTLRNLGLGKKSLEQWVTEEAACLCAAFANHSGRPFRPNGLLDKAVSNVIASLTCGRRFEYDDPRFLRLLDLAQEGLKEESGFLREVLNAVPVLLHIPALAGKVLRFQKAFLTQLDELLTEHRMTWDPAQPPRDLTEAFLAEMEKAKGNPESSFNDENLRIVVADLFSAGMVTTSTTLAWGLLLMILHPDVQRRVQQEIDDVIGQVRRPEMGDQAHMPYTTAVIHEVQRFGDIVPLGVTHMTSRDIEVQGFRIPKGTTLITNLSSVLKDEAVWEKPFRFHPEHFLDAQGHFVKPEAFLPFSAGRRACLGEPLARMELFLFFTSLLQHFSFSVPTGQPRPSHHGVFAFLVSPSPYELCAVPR
CYP3A4, sequence (P08684 whole entry): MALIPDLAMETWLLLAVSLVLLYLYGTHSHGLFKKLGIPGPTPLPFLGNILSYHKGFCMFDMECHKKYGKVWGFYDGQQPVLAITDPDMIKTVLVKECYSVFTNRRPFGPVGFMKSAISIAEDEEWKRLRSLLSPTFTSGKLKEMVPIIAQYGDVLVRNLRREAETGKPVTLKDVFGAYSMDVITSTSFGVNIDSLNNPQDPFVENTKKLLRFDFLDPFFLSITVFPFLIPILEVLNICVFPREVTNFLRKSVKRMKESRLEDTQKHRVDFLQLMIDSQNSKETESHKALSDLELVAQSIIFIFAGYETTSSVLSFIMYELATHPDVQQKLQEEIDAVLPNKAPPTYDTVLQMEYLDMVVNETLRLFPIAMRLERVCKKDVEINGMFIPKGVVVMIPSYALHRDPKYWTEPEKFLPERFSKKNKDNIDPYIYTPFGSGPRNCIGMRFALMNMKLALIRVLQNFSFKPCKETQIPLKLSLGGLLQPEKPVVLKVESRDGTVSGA
CYP2C19, sequence (P33261 whole entry): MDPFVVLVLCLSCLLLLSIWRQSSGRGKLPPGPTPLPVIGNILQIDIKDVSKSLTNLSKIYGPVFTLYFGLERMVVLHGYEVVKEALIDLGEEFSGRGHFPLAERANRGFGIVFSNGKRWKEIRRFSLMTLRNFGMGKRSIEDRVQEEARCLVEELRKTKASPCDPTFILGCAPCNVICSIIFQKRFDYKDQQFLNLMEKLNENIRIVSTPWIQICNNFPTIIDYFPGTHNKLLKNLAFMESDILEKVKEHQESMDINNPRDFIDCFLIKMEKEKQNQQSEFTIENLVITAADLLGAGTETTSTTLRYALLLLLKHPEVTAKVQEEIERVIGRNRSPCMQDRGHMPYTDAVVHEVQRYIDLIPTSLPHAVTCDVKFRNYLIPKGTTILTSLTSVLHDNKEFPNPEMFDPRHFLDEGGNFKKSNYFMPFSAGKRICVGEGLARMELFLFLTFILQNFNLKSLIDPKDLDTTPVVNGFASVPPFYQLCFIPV
CYP2C9, sequence (P11712 whole entry): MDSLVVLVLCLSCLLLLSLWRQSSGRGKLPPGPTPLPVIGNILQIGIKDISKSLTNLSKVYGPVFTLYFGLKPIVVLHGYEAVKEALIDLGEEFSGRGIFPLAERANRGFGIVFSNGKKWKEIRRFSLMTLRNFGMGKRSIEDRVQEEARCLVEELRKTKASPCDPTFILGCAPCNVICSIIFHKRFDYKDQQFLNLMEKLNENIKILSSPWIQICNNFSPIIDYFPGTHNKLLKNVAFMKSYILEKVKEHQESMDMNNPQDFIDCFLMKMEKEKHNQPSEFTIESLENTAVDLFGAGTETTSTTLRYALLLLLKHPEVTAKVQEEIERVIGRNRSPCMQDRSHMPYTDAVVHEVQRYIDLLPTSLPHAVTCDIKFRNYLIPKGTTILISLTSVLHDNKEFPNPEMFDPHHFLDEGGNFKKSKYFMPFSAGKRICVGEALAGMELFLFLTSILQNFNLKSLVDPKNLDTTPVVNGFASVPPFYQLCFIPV

As to `CC1(C)CCC2(C(=O)O)CCC3(C)C(=C2C1)C=CC1C2(C)CCC(O)C(C)(C)C2CCC13C` (centres unmarked) [Compound 36], the activity at 30 min came out at 88.6 ± 6.9% at CYP2B6; 72.7 ± 10.4% at CYP2D6; 55.4 ± 1.19% on CYP3A4; 87 ± 1.46% on CYP2A6; 84.38 ± 0.53% on CYP2C19; 82.9 ± 2.75% on CYP2C9. Moreover, on CYP1A2, the activity at 30 min is 81.9 ± 5.81%.

In the case of `CC(=CC(=O)CC(C)C(=O)O)C1CC(=O)C2(C)C3=C(C(=O)CC12C)C1(C)CCC(=O)C(C)(CO)C1CC3O` (centres unmarked) [Compound 1], the activity at 30 min worked out at 86.9 ± 5.76% at CYP2B6; 82.4 ± 1.5% at CYP2D6; 84.3 ± 7.26% on CYP3A4; 79.5 ± 3.07% at CYP2A6; 65 ± 6% on CYP2C19; 91.82 ± 0.87% at CYP2C9. For the same compound, the activity at 30 min on CYP1A2 worked out at 29.1 ± 1.9%. Also, the IC50 on CYP1A2 was found to be 10.1 ± 0.23 µM.

For `CC(CC(=O)CC(C)C1CC(=O)C2(C)C3=C(C(=O)CC12C)C1(C)CCC(O)C(C)(CO)C1CC3O)C(=O)O` (centres unmarked) [Compound 2], the activity at 30 min was found to be 79.86 ± 0.32% at CYP2B6; 79.7 ± 8.99% at CYP2D6; 79.6 ± 5.54% at CYP3A4; 78.38 ± 0.16% on CYP2A6; 62.77 ± 0.26% at CYP2C19; 87.1 ± 3.47% on CYP2C9. On CYP1A2, this compound displayed an activity at 30 min of 35.4 ± 3.33%. For the same compound, half-maximal inhibition on CYP1A2 (IC50) required 16 ± 4.05 µM.
